The subject of test [1] is threshold of pain. In words: hot-plate test on mouse. Format: in vivo, NIH female mice. The method, then:
Adjusted the temperature of water bath box to 55° C.±1° C. I.C. Immersed one big beaker in the water bath and put mice into the beaker. Recorded the period from the time when animals were put into the beaker to that when animals licked feet due to pain, and defined the period as the threshold of pain of that mouse.
Screened out the mice whose threshold of pain were in the range of 5-30 seconds, and divided them randomly into 5 groups including control group, indometacin-treated group and three Shengmaichenggu capsule-treated groups (The dosage are shown in table 11). Administered medicaments to animals by gavage for continuous 7 days. Determined the threshold of pain at the time of 30 minutes and 60 minutes after the administration at day 7 respectively, and observed the changes in the threshold of pain after administration. Room temperature should be controlled in the range of 15-20° C.
(Thermal pain tests record how soon the animal reacts.)

Test [2] deals with mouse pinnal inflammation caused by dimethylbenzene. In words: mouse pinnal inflammation induced by dimethylbenzene. Format: in vivo, NIH mice. Particulars: 0.013 g/kg/day, gavage 7 days. How it is done:
Divided the mice into 5 groups randomly with 8 mice each, i.e. control group, indometacin-treated group and three Shengmaichenggu capsule-treated groups (dosages are shown in table 12). The mice were administered medicaments in different concentration by gavage. […] Killed the mice after […] by decollation. Cut out the equal area at the same position from both ears of the mouse with perforator, and weighted with torsion balance. The swell degree is defined as the weight difference of subtracting the weight of the right ear from that of the left. Analyzed the data of swell degree of the control group and the treated groups statistically.

For test [3], the system named is mouse pain induced by acetic acid. Description: writhing response on mouse (acetic acid). Format: in vivo, NIH mice. The following applies: 0.013 g/kg/day, gavage 7 days. How it is done:
Divided the mice into 5 groups randomly, i.e. control group (0.2 ml/10 g distilled water), indometacin-treated group (0.013 g/kg) and three Shengmaichenggu capsule-treated groups (dosages are shown in table 10). The mice were administered by gavage for 7 days. […] Recorded the first time when the writhing response appeared caused by pain for each mouse, the number of the writhing response appeared in 10 minute and the analgesic percent.
For orientation: Writhing tests count abdominal constrictions after an irritant is injected.

The test system of test [4] is serum hemolysin. Description: hemolysin content of mouse immunised by chicken blood cells. It is filed as in vivo, NIH mice. Particulars: 0.04 g/kg/day. How it is done:
The grouping and administering scheme was the same as that of the above-mentioned Experiment of nonspecific immunological functions. At the first day of administration, injected 5% suspension of chicken red blood cells to abdominal cavity of mice at a dosage of 0.2 ml/one mouse. Seven days after immunization, took blood from eyeball and centrifuged. The serum was diluted 100 times with physiological saline. 1 ml of the diluted serum was mixed with 0.5 ml of 5% suspension of chicken red blood cells and 0.5 ml of 10% complement. After incubation in an incubator at 37° C. for 30 minutes, the reaction was terminated by putting the mixture into a 0° C. refrigerator.
The formulated test solution was centrifuged. Took the supernatant and detected optical density (OD) by colorimetric analysis in 722-grating photometer (λ=620). Set up a control group free of serum and took the supernatant of the centrifuged test solution of this group as the “0” basis for colorimetric assay. Took “OD” as the index for quantifying the serum hemolysin and analysed the data statistically.

Test [5] deals with mice lymphocyte. Description: cellular immunity test: transformation reaction of mice lymphocyte (PHA). Format: in vivo, NIH mice. Particulars: 0.04 g/kg/day. The method, then:
The mice were divided into 6 groups randomly, i.e. control group, model group levamisole-treated group, and three Shengmaichenggu capsule-treated groups at different dosages (dosages are shown in table 17). Administered by gavage once a day for continuous 7 days. After the last administration, all the animals were immunized by injecting 5% suspension of chicken red blood cells to abdominal cavity at a dosage of 0.2 ml/one mouse. Then the animals were injected PHA to abdominal cavity at a dosage of 0.025 ml/10 g for continuous 3 days. All groups except control group were administered prednisone acetate at a dosage of […] body weight by gavage for continuous 7 days. At the time of 12 hours after last administration, the experiment was carried out according to the Experiment of the content of mouse hemolysin mentioned above in which chicken blood cells were used as immunogen.

The subject of test [6] is monocytophagous function. Description: monocytophagous function of mouse (china ink clearance), prednisone acetate immunosuppression. The following applies: 0.04 g/kg/day, gavage 20 days. It is filed as in vivo, NIH mice. How it is done: (§1) The mice were divided into 6 groups randomly, i.e. control group, modeled group, levamisole-treated group, and three Shengmaichenggu capsule-treated groups (dosages are shown in table 14). […] Administered distilled water to the control group by gavage in the same period. At the time of 30 minutes after administering on the day 20, injected […] into tail vein at a dosage of 0.01 ml/l10 g. At the 2th and 12th minute after injection, took 10 μl orbit blood and put into 3 ml 0.1% Na2CO3 solution and shook up. Detected optical density (OD) by colorimetric analysis in 722-grating photometer (λ=620). […] The animals were killed by dislocating cervical vertebra. The liver and spleen were weighted respectively. Determined the weight of immune organs of every mouse according to the immune organ weighting method. Calculated the immune organ index and made a statistical analysis for the result.

In test [7] the test system is immune organs (thymus, spleen). In words: immune organ coefficient of mouse, prednisone acetate immunosuppression. The following applies: Dosage/kg/day 0.04. It is filed as in vivo, NIH mice. How it is done: as §1
Test [8] relates to tampon-induced granuloma. In words: granuloma induced by tampon on rat. Format: in vivo, SD rats. Particulars: 25 mg/kg/day, gavage. The method, then: The rats were divided into 5 groups randomly with 12 rats each group, i.e. control group, prednisone acetate-treated group and three Shengmaichenggu capsule-treated groups. An incision was made aseptically along the dorsimeson of a rat anesthetized by pentobarbital sodium and a sterilized tampon was imbedded into the incision and sewed up. The treated groups were administered by gavage 3 days before surgery until the day 7 after surgery. At the 8th day after surgery, the rats were killed by decollation. Avulsed out the tampon-caused granuloma tissue and dried it at 60-90° C. in a oven for 1 hour. Then weighted and subtracted the initial weight of tampon to get the net weight of granuloma tissue. Compared the granuloma weight among these groups and analyzed the results statistically.

Test [9] concerns acute blood stasis model. In words: hermorheology index of rat acute blood stasis model. It is filed as in vivo, SD rats. Particulars: 90 mg/kg/day, gavage 20 days. How it is done: The rats were divided into 6 groups randomly, i.e. normal control group, blood stasis model group, Tetramethylpyrazine phosphate-treated group and three Shengmaichegngu capsule-treated groups (the dosage were shown in table 9). The control group and the blood stasis model group were administered equal volume of distilled water by gavage. Every treated groups were administered liquor drug with different concentrations at a dosage of 2 ml/100 g weight/day, once daily at a fixed time for 20 days. When 24 hours after the last administration, animals except the normal control group were injected epinephrine hydrochloride hypodermically for two times (0.8 mg/kg) with an interval of 3 hours. The rats were immersed in water at 4±1° C. for 5 minutes at the time of 1.5 hour after the first injection of epinephrine hydrochloride, then the animals fast. In the next morning, eyeball blood was taken from anesthetized animals (injected pentobarbital sodium to abdominal cavity at a dosage of 30 mg/kg ). Hermorheology indexes were determined which include specific viscosity of whole blood, specific viscosity of plasma, erythrocyte sedimentation and hematokrit.

Marks after values point to notes of the source that are not given here.

On to `COc1ccc2c(c1)c(CC(=O)O)c(C)n2C(=O)c1ccc(Cl)cc1` [Indometacin, indometacin], for which the “Threshold of pain at different time after administration, 30 min” value in test [1] (0.013 g/kg/day, day 7, 30 min) was determined as 28.07 ± 6.67 S. Also, the “Threshold of pain at different time after administration, 60 min” value in test [1] (0.013 g/kg/day, day 7, 60 min) amounted to 24.64 ± 6.49 S. For the same compound, the “Threshold of pain before administration” value in test [1] (baseline, group 0.013 g/kg/day) is on record as 18.93 ± 5.41 S. In test [2], the Swell degree is recorded as 0.5500 ± 0.258 mg. Moreover, in test [3], the Analgesic percent is listed as 75## %, the “Number of writhing mice” value was 2## and the “The First time when the writhing response appeared” value is 572.75 ± 182.13 s.

Turning to `c1ccc([C@H]2CN3CCSC3=N2)cc1` [Levamisole, levamisole], the “OD (Optical density), hemolysin content” value in [4] was found to be 0.7370 ± 0.1444. Moreover, in test [5], the “Transformation rate of lymphocyte” value is 0.7370 ± 0.03234 %, the limphoblast is on record as 0.4310 ± 0.05043 % and the transition state cells was determined as 0.3050 ± 0.0495 %. In test [6], the “Phagocytic activity α” value worked out at 5.1964 ± 0.7761 and the “Phagocytic count K” value amounted to 0.0273 ± 0.00852. In [7], the “Immune organ coefficient, Spleen” value was 52.82 ± 0.887 mg/kg and the “Immune organ coefficient, Thymus” value was 1.501 ± 0.334 mg/kg.

Turning to `CC(=O)OCC(=O)[C@@]1(O)CC[C@H]2[C@@H]3CCC4=CC(=O)C=C[C@]4(C)[C@H]3C(=O)C[C@@]21C` [Prednisone acetate, prednisone acetate], in [8], the “Net weight of granuloma” value is on record as 33.45 ± 13.10 mg.

In the case of `Cc1nc(C)c(C)nc1C.O=P(O)(O)O` [Tetramethylpyrazine phosphate], in test [9], the Erythrocyte sedimentation is 1.80 ± 0.27; the Hematokrit is on record as 43.55 ± 2.39; the “Specific viscosity of plasma” value stood at 1.95 ± 0.08; the “Specific viscosity of whole blood, High shearviscosity coefficient” value came to 5.59 ± 0.40. Also, the “Specific viscosity of whole blood, Lower shearviscosity coefficient” value in test [9] was found to be 20.87 ± 2.63.

Source of the values: patent US6797285B1, “Leaves of Cajanus Cajan(L.) Millsp and extract, formulation and uses thereof” (priority 1999, dated 2004).
